Values quoted from earlier work in patent US20230190668A1, “SLOW-RELEASE MEDICAL PLASTER” (FIDIA FARMACEUTICI S.P.A., priority 2020, published 2023).
Counter-ions that a name gives are not always drawn. Like-named read-outs stand apart in the source and are kept apart here.

Conditions: same matrix, active ingredient amount and excipients, 24 hours, without BHA

| SMILES | release from medical plaster with PSA matrix of Eudragit NE40 and citric acid ester | release from medical plaster with PSA matrix of Eudragit NE40 and citric acid ester (sodium salt) |
| --- | --- | --- |
| O=C(O)Cc1ccccc1Nc1c(Cl)cccc1Cl [diclofenac DEA salt, diclofenac diethylammonium salt] | released in a constant, continuous, prolonged and therapeutically effective way for 24 hours |  |
| O=C(O)Cc1ccccc1Nc1c(Cl)cccc1Cl [diclofenac sodium salt] |  | released in a minimal way |
